# Data published in ChEMBL document CHEMBL1155906, “Structural modifications of N-arylamide oxadiazoles: Identification of N-arylpiperidine oxadiazoles as potent and selective agonists of CB2” (Bioorg Med Chem Lett, 2008).
# How the values were obtained:
# [1] = Inhibition of CCR2b receptor
# Cannabinoid receptor 2 [2] = molecular target: T1, Cannabinoid receptor 2 (Homo sapiens, UniProt P34972); experiment: Agonist activity at human CB2 receptor expressed in insect Sf9 cells assessed as effect on Eu-GTP binding
# T1 sequence (P34972 whole entry): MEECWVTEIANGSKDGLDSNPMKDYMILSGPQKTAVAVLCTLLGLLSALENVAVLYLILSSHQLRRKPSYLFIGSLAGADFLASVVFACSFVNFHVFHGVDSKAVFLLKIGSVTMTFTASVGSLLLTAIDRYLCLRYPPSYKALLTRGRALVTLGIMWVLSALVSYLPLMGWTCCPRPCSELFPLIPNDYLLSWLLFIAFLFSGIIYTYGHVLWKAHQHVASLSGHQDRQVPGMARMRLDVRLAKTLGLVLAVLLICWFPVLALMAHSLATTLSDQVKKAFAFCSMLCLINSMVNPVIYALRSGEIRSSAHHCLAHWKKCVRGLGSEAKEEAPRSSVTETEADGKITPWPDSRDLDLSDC
# Cannabinoid receptor 2 [3] = molecular target: T1, Cannabinoid receptor 2; experiment: Agonist activity at human CB2 receptor expressed in insect Sf9 cells assessed as effect on Eu-GTP binding relative to CP-55940
# Cannabinoid receptor 1 [4] = molecular target: T2, Cannabinoid receptor 1 (Homo sapiens, UniProt P21554); experiment: Agonist activity at human CB1 receptor expressed in insect Sf9 cells assessed as effect on Eu-GTP binding
# T2 sequence (P21554 whole entry): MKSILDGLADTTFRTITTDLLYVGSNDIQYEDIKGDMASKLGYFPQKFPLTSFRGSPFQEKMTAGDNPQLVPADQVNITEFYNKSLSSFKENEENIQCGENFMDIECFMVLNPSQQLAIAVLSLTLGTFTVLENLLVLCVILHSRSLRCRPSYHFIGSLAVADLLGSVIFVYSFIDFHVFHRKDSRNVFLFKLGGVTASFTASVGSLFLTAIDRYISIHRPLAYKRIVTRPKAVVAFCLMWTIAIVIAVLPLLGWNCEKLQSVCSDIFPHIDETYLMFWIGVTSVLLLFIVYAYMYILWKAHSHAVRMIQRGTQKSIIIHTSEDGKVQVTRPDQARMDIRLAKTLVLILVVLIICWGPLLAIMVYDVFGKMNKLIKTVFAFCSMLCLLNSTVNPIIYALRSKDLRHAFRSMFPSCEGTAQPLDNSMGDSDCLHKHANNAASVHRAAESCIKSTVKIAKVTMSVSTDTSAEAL
# Cannabinoid receptor 1 [5] = molecular target: T2, Cannabinoid receptor 1; experiment: Agonist activity at human CB1 receptor expressed in insect Sf9 cells assessed as effect on Eu-GTP binding relative to CP-55940
# [6] = Metabolic stability in rat liver microsome assessed as intrinsic clearance; assay type: ADME; details: liver microsomes
# [7] = Metabolic stability in human liver microsome assessed as intrinsic clearance; assay type: ADME; details: liver microsomes
# Cannabinoid receptor 2 [8] = molecular target: T1, Cannabinoid receptor 2; experiment: Agonist activity at human CB2 receptor assessed as inhibition of forskolin-induced increase in intracellular cAMP; assay type: functional, cell-based
# Cannabinoid receptor 2 [9] = molecular target: T1, Cannabinoid receptor 2; experiment: Agonist activity at human CB2 receptor assessed as inhibition of forskolin-induced increase in intracellular cAMP relative to CP-55940; assay type: functional, cell-based
# Cannabinoid receptor 1 [10] = molecular target: T2, Cannabinoid receptor 1; experiment: Agonist activity at human CB1 receptor assessed as inhibition of forskolin-induced increase in intracellular cAMP; assay type: functional, cell-based
# Cannabinoid receptor 1 [11] = molecular target: T2, Cannabinoid receptor 1; experiment: Agonist activity at human CB1 receptor assessed as inhibition of forskolin-induced increase in intracellular cAMP relative to CP-55940; assay type: functional, cell-based
# [12] = molecular target: Voltage-gated inwardly rectifying potassium channel KCNH2 (Homo sapiens, UniProt Q12809); experiment: Displacement of radiolabeled dofetilide from human ERG
# [13] = molecular target: T3, Somatostatin receptor type 4 (Homo sapiens, UniProt P31391); experiment: Inhibition of sst4 receptor
# T3 sequence (P31391 whole entry): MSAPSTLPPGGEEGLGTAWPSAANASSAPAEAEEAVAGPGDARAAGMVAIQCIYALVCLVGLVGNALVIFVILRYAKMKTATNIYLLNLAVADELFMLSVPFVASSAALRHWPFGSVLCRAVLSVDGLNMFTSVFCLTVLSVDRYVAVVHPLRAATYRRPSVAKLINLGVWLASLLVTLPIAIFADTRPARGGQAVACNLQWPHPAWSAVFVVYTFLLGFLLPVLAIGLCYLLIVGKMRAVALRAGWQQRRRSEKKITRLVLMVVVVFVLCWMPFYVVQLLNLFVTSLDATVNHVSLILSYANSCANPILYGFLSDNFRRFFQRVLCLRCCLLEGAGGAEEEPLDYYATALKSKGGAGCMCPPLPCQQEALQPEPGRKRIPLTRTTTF
# [14] = Inhibition of adrenergic alpha1 receptor
# [15] = molecular target: T4, Beta-1 adrenergic receptor (Homo sapiens, UniProt P08588); experiment: Inhibition of adrenergic beta-1 receptor
# T4 sequence (P08588 whole entry): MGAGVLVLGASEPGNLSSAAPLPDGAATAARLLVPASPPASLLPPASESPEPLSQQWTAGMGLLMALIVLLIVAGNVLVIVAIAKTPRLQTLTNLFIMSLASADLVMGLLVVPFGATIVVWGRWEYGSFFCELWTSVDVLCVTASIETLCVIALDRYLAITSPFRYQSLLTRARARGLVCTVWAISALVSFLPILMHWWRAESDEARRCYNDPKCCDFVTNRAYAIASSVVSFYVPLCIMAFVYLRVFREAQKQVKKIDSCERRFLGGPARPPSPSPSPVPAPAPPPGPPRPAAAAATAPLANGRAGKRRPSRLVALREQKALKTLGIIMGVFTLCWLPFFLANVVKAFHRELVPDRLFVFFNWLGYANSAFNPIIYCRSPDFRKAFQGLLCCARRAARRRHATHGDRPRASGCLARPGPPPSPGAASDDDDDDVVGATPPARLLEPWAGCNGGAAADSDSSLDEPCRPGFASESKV
# D(2) dopamine receptor [16] = molecular target: T5, D(2) dopamine receptor (Homo sapiens, UniProt P14416); experiment: Inhibition of dopamine D2 receptor
# T5 sequence (P14416 whole entry): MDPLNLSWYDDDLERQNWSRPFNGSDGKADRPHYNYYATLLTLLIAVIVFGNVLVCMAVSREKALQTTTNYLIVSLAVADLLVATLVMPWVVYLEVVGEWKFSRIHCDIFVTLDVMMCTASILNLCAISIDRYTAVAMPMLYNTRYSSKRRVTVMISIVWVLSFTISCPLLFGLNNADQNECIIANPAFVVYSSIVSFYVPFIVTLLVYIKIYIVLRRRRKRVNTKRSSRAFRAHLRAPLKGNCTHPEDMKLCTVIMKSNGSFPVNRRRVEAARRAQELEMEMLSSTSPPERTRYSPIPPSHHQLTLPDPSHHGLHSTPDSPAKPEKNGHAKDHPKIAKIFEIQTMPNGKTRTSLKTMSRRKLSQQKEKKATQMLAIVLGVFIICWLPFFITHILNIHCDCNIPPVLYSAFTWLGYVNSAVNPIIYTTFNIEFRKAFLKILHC
# [17] = molecular target: T6, 5-hydroxytryptamine receptor 1A (Homo sapiens, UniProt P08908); experiment: Inhibition of 5HT1A receptor
# T6 sequence (P08908 whole entry): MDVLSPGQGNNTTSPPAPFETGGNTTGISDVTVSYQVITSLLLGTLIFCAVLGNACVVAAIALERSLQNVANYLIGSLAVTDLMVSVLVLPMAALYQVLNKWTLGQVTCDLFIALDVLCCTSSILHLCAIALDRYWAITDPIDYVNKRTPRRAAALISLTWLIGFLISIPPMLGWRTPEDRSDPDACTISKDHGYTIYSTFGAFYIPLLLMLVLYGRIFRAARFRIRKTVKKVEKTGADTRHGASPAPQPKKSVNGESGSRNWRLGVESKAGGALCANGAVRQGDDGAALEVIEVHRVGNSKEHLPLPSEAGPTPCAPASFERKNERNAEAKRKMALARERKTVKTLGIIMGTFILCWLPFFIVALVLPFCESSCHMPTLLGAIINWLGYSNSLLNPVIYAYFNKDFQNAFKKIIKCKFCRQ
# [18] = molecular target: T7, 5-hydroxytryptamine receptor 2B (Homo sapiens, UniProt P41595); experiment: Inhibition of 5HT2B receptor
# T7 sequence (P41595 whole entry): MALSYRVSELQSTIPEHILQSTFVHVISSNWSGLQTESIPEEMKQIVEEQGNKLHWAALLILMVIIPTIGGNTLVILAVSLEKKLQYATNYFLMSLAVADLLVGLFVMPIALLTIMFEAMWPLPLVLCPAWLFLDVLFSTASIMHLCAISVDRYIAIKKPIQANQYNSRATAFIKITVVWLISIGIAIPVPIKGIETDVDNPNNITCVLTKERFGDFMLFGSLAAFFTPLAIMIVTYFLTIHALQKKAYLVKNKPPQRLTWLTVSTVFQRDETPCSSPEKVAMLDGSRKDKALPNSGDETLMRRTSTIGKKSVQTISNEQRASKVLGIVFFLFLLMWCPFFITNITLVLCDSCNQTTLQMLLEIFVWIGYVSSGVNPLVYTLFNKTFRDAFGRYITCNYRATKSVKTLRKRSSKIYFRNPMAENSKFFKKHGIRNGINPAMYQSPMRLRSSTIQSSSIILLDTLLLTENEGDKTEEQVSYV
# [19] = Inhibition of CXR2 receptor
# Substance-P receptor [20] = molecular target: T8, Substance-P receptor (Homo sapiens, UniProt P25103); experiment: Inhibition of NK1 receptor
# T8 sequence (P25103 whole entry): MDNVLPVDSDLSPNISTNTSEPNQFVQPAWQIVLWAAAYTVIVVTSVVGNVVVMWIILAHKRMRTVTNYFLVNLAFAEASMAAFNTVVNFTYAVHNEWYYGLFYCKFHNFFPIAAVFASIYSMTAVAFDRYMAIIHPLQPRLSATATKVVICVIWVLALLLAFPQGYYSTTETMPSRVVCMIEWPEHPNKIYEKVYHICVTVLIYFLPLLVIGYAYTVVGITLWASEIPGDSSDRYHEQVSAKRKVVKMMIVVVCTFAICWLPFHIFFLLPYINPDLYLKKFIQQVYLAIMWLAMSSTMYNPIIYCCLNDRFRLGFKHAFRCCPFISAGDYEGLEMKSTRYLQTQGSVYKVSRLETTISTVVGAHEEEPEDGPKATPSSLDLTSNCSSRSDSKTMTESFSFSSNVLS
# Mu-type opioid receptor [21] = molecular target: T9, Mu-type opioid receptor (Homo sapiens, UniProt P35372); experiment: Inhibition of mu opioid receptor
# T9 sequence (P35372 whole entry): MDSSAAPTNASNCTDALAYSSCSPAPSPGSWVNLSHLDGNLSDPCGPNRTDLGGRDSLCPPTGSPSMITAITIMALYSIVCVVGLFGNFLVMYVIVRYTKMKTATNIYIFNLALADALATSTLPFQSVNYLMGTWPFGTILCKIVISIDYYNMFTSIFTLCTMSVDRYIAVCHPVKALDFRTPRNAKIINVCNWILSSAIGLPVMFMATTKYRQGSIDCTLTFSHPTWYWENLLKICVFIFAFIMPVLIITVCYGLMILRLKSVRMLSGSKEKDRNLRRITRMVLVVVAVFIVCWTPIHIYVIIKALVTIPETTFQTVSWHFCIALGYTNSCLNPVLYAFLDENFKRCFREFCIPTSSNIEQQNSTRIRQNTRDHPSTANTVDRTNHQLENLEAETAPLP
# Histamine H1 receptor [22] = molecular target: T10, Histamine H1 receptor (Homo sapiens, UniProt P35367); experiment: Inhibition of histamine H1 receptor
# T10 sequence (P35367 whole entry): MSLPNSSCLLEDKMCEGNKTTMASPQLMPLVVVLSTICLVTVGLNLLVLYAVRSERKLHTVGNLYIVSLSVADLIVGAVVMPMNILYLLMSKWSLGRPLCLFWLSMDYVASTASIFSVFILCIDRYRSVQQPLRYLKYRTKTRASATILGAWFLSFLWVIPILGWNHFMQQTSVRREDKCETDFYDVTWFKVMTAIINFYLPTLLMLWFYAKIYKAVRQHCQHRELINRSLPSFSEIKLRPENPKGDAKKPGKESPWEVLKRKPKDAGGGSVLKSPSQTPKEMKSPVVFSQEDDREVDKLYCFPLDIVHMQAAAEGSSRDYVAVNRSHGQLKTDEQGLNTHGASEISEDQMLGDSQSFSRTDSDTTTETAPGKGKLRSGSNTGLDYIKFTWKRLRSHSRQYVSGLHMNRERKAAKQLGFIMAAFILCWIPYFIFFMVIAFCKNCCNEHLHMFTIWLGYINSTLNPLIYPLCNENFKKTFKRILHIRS
# [23] = molecular target: T11, Muscarinic acetylcholine receptor M1 (Homo sapiens, UniProt P11229); experiment: Inhibition of muscarinic M1 receptor
# T11 sequence (P11229 whole entry): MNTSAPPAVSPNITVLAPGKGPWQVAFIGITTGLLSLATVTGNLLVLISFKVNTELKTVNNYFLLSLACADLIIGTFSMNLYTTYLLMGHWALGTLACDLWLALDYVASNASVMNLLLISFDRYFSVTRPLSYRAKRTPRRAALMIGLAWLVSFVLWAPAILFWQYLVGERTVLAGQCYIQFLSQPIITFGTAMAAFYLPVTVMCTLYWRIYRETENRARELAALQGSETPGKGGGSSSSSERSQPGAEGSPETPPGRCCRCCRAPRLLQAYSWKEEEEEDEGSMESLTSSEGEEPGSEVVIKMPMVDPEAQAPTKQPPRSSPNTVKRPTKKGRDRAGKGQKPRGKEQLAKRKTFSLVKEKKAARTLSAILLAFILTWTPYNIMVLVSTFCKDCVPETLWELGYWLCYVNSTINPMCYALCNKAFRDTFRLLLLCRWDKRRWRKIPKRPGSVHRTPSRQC
# [24] = molecular target: T3, Somatostatin receptor type 4; experiment: Agonist activity at sst4 receptor; assay type: functional
# [25] = Agonist activity at adrenergic alpha1 receptor; assay type: functional
# [26] = molecular target: T4, Beta-1 adrenergic receptor; experiment: Agonist activity at adrenergic beta-1 receptor; assay type: functional
# D(2) dopamine receptor [27] = molecular target: T5, D(2) dopamine receptor; experiment: Agonist activity at dopamine D2 receptor; assay type: functional
# [28] = molecular target: T6, 5-hydroxytryptamine receptor 1A; experiment: Agonist activity at 5HT1A receptor; assay type: functional
# [29] = molecular target: T7, 5-hydroxytryptamine receptor 2B; experiment: Agonist activity at 5HT2B receptor; assay type: functional
# [30] = Agonist activity at CXR2 receptor; assay type: functional
# [31] = Agonist activity at CCR2b receptor; assay type: functional
# Substance-P receptor [32] = molecular target: T8, Substance-P receptor; experiment: Agonist activity at NK1 receptor; assay type: functional
# Mu-type opioid receptor [33] = molecular target: T9, Mu-type opioid receptor; experiment: Agonist activity at mu opioid receptor; assay type: functional
# Histamine H1 receptor [34] = molecular target: T10, Histamine H1 receptor; experiment: Agonist activity at histamine H1 receptor; assay type: functional
# [35] = molecular target: T11, Muscarinic acetylcholine receptor M1; experiment: Agonist activity at muscarinic M1 receptor; assay type: functional
# [36] = Bioavailability in Sprague-Dawley rat at 10 mg/kg, po; assay type: ADME, organism-based; details: in vivo
# [37] = Clearance in Sprague-Dawley rat at 0.5 mg/kg, iv; assay type: ADME, organism-based; design: dose 0.5 mg/kg, route intravenous; details: in vivo
# [38] = Volume of distribution at steady state in Sprague-Dawley rat at 0.5 mg/kg, iv; assay type: ADME, organism-based; design: dose 0.5 mg/kg, route intravenous; details: in vivo, read-out: Vdss
# [39] = Half life in Sprague-Dawley rat at 0.5 mg/kg, iv; assay type: ADME, organism-based; design: dose 0.5 mg/kg, route intravenous; details: in vivo
# [40] = Cmax in Sprague-Dawley rat at 10 mg/kg, po; assay type: ADME, organism-based; design: dose 10 mg/kg, route oral; details: in vivo
# [41] = AUC (0 to 24 hrs) in Sprague-Dawley rat at 10 mg/kg, po; assay type: ADME, organism-based; design: time < 24 hr, dose 10 mg/kg, route oral; details: plasma
# [42] = Solubility in 0.01 N HCl; assay type: physicochemical
# [43] = Solubility in phosphate buffer saline; assay type: physicochemical; details: phosphate buffered saline
# [44] = Solubility in simulated intestinal fluid; assay type: physicochemical
# [45] = Apparent permeability across pig wild-type LLC-PK1 cells at 5 uM in presence of 0.1% BSA; assay type: ADME, cell-based, Sus scrofa
# LLC-PK1 [46] = experiment: Ratio of permeability from basolateral to apical side to apical to basolateral side in pig wild-type LLC-PK1 cells at 5 uM in presence of 0.1% BSA; assay type: ADME, cell-based, Sus scrofa; details: llc-pk1, 5 µM
# human MDR1 (P-gp) = experiment: Apparent permeability across pig LLC-PK1 cells transfected with human MDR1 at 5 uM in presence of 0.1% BSA; assay type: ADME, cell-based, Sus scrofa
# LLC-PK1 [47] = experiment: Ratio of permeability from basolateral to apical side to apical to basolateral side in pig LLC-PK1 cells expressing human MDR1 at 5 uM in presence of 0.1% BSA; assay type: ADME, cell-based, Sus scrofa; details: llc-pk1, 5 µM
compound,measurement,setting,value
Fc1ccc(-c2noc(C3CCN(c4cnc5ccc(Cl)cc5c4)CC3)n2)c(Cl)c1,IC50,[1],> 50 µM
same,EC50,Cannabinoid receptor 2 [2],0.007 µM
same,Emax,Cannabinoid receptor 2 [3],120%
same,EC50,Cannabinoid receptor 1 [4],1.43 µM
same,Emax,Cannabinoid receptor 1 [5],55%
same,microsomal CLint,[6],32 µL/min/mg
same,microsomal CLint,[7],38 µL/min/mg
same,EC50,Cannabinoid receptor 2 [8],0.011 µM
same,Emax,Cannabinoid receptor 2 [9],102%
same,EC50,Cannabinoid receptor 1 [10],> 2 µM
same,Emax,Cannabinoid receptor 1 [11],19%
same,IC50,[12],0.5 µM
same,IC50,[13],> 50 µM
same,IC50,[14],> 50 µM
same,IC50,[15],> 50 µM
same,IC50,D(2) dopamine receptor [16],> 50 µM
same,IC50,[17],> 50 µM
same,IC50,[18],> 50 µM
same,IC50,[19],> 50 µM
same,IC50,Substance-P receptor [20],> 50 µM
same,IC50,Mu-type opioid receptor [21],> 50 µM
same,IC50,Histamine H1 receptor [22],> 50 µM
same,IC50,[23],> 50 µM
same,EC50,[24],> 50 µM
same,EC50,[25],> 50 µM
same,EC50,[26],> 50 µM
same,EC50,D(2) dopamine receptor [27],> 50 µM
same,EC50,[28],> 50 µM
same,EC50,[29],> 50 µM
same,EC50,[30],> 50 µM
same,EC50,[31],> 50 µM
same,EC50,Substance-P receptor [32],> 50 µM
same,EC50,Mu-type opioid receptor [33],> 50 µM
same,EC50,Histamine H1 receptor [34],> 50 µM
same,EC50,[35],> 50 µM
same,bioavailability,[36],2%
same,clearance,[37],0.65 mL/min/kg
same,Vd,[38],0.365 L/kg
same,half-life,[39],8.9 h
same,Cmax,[40],682 ng/mL
same,AUC(0-t) at 24 h,[41],5240 ng·h/mL
same,solubility,[42],< 1 µg/mL
same,solubility,[43],< 1 µg/mL
same,solubility,[44],2 µg/mL
same,Papp at 5 µM,[45],9.95 ×10⁻⁶ cm/s
same,Ratio,LLC-PK1 [46],0.9
same,Papp at 5 µM,human MDR1 (P-gp),10.7 ×10⁻⁶ cm/s
same,Ratio,LLC-PK1 [47],0.9
